One may read the IC50 as the concentration that inhibits the measured activity by half. A higher IC50 goes with weaker potency in that assay. The inhibition is the change of the read-out against control, counted positive when it falls.

For series [1], the system named is human lymphocytes. Put plainly: IL-2 induced blastogenesis assay. It counts as cell-based. The settings on record: human IL-2, six days; FIG. 12. The procedure: (§1) Briefly, human lymphocytes are obtained from blood from normal volunteers and plated into wells at 2×10^5 cells/well. Human IL-2 ([…] or 5 μl of a 100 U/ml solution) and drug at various concentrations are added to each well. The cells are incubated for six days and then proliferation is determined by a standard tritiated thymidine incorporation procedure. […] However, both CT1406 and CT1442 were active, as is shown by IC50 values in FIG. 12.
as §1, with “This example illustrates the effects of four inventive compounds to inhibit proliferation of human lymphocytes in an IL-2 induced blastogenesis in vitro assay. […] Briefly,” for “Briefly,”, “cells am” for “cells are”

In series [2] the test system is human lymphocytes. Put plainly: CD3 blastogenesis assay. It counts as cell-based. The settings on record: IL-2 or CD3 blastogenesis; FIG. 13. As for the experimental part:
The CD3 blastogenesis assay is virtually identical to the IL-2 blastogenesis assay described herein, except a human anti-CD3 monoclonal antibody (4 μg/ml, Boehinger Manheimm) is used instead of human IL-2 and the cells are incubated for only three days.
This example illustrates various IC50 values of five inventive compounds as determined by an IL-2 blastogenesis assay described in example 44 above or a CD3 blastogenesis assay. The CD3 blastogenesis assay is virtually identical to the IL-2 blastogenesis assay described herein, except a human anti-CD3 monoclonal antibody (4 μg/ml, Boehinger Manheimm) is used instead of human IL-2 and the cells are incubated for only three days.

The test system of series [3] is CMV promoter activity in transformed (adenovirus) cells. Put plainly: CMV promoter assay (gene transcription and translation; cytotoxicity in transformed cells). The class given is cell-based. The source says: FIG. 18 illustrates data regarding proliferative activity of various inventive compounds for inducting CMV promoter activity. The CMV promoter assay measures gene transcription and translation activity wherein any active compounds will have cytotoxic activity to inhibit cellular protein synthesis machinery in transformed (adenovirus) cells.
This example illustrates data regarding proliferative activity of various inventive compounds for inducting CMV promoter activity. The CMV promoter assay measures gene transcription and translation activity wherein any active compounds will have cytotoxic activity to inhibit cellular protein synthesis machinery in transformed (adenovirus) cells.

For the next series, the system named is mast cell degranulation. Put plainly: Serotonin release assay (inhibition of mast cell degranulation). It counts as cell-based. The conditions noted are these: 50 μM; for RELEASE-SPONT / AVERAGE % RELEASE / inhibition at 50 µM: Table 4; for RELEASE-SPONT: average corrected for spontaneous release; for AVERAGE % RELEASE: average of duplicates; for inhibition at 50 µM: Mast cell. The source says:
A serotonin release assay is utilized to study the utility of the inventive compounds for treatment of asthma and allergy. […] This assay measures mast cell degranulation, which is an early phase reaction to allergen challenge. Mast cells grown in tissue culture are first loaded with ^3 H serotonin, which is incorporated into the granules in the cells. The mast cells are sensitized with antigen specific monoclonal IgE, and then triggered to degranulate with the specific antigen (dinitorphenolbound to BSA (DNP)). When the cells degranulate, ^3 H Serotonin is released into the medium, and can be measured directly. The ability of the inventive compounds to inhibit the degranulation response is determined by the decrease in ^3 H Serotonin released in the presence of drug and is represented as % INHIBITION.
Specifically, the serotonin release assay seeds 2×10^5 cells in 0.5 ml medium in duplicate for spontaneous release, IgE+DNP, IgE+DNP+EtOH (vehicle control), and inventive compounds. […] The cells are incubated for 18 hours at 37° C. in 5% CO2, washed twice with 0.5 ml Isotonic Buffer (25 mM disodium PIPES pH 7.1,100 mM NaCl, 5 mM KCl, 5 mM glucose, 0.4 mM MgCl2, 1mM CaCl2, 0.1% BSA), and sterile filtered. 250 μl Isotonic Buffer is added per well and the plates are equilibrated in an incubator for about 10 min. Drug is added and cells are activated with 40 ng/ml DNP-BSA (1 mg/ml Diluted 1:200 in Isotonic Buffer) for 45 minutes using 2 μl/250 μl. Spontaneous release is determined in incubated cells with 250 μl Isotonic Buffer for 45 minutes and the reaction is stopped by removing supernatant and centrifuging at ~4000 rpm in microfuge for 15 seconds to remove any detached cells. Released radiolableled serotonin is counted. To determine amount of ^3 H-serotonin incorporated into the cells, (a) remove Isotonic Buffer and lyse cells by adding 250 μl 1% Triton-X100 in PBS, (b) add to 5 ml scintillation fluid, (c) wash 2× with Triton/PBS, and (d) add washes to scintillation tube. Percent serotonin release is calculated by dividing the amount of released serotonin by the sum of incorporated plus released serotonin and correcting for spontaneous released serotonin. Compound inhibition is calculated by dividing the percent serotonin release in the presence of a compound by the percent serotonin release in the absence of the compound.
This assay is described above and provides an in vitro model for an allergy and asthma therapeutic product.

The test system of a further series is Saccharomyces cervisiae. Put plainly: Yeast growth inhibition assay. It counts as cell-based. The settings on record: FIG. 14. As for the experimental part:
Some of the inventive compounds are effective for inhibiting yeast cell growth. This effect can be assayed by measuring growth of the yeast strain Saccharomyces cervisiae. A control yeast stain Saccharomyces cervisiae (BIO 101, Inc.) is grown overnight in YEPD broth at 30° C. A one to hundred dilution of the yeast culture is made with fresh YEPD broth. 100 μl Aliquots of the diluted culture are distributed into 96-wells titer plates. 100 μl Aliquots of drug is diluted in YEPD broth were then added to the wells. The titer plates are incubated at room temperature with continuous shaking. The cell density of the individual cultures are determined using a microplate reader with a A630 filter. The A630 of the individual yeast cultures are compared to control samples without adding drug. This assay is predictive of direct antimicrobial, particularly yeast and fungal, activity of the drugs studied.
This example illustrates the effects of CT2501R (a reference compound), CT2536R, CT2536S, CT1596R, and CT1596S of yeast growth (Saccromyces cerevasie) in the presence or absence of drug. These assays measure anti-yeast and anti-fungal activity of the drugs tested. […] Therefore either the R enantiomer, the S enantiomer or a racemic mixture of CT2536 are potential topical or systemic antimicrobial drugs.

Series [4] has as its system PBMC (peripheral blood mononuclear cells). As to the kind of experiment: Two-way mixed lymphocyte reaction (MLR), proliferation of PBMC to allogeneic stimulation. It counts as cell-based, human. The conditions noted are these: for mixed lymphocyte reaction activity: FIGS. 1 and 2. The source says:
Various in vitro assays can be used to measure effects of the inventive compounds to module immune activity and have antitumor activity using a variety of cellular types. For example, a mixed lymphocyte reaction (MLR) provides a valuable screening tool to determine biological activity of each inventive compound. In the MLR, PBMCs (peripheral blood mononuclear cells) are obtained by drawing whole blood from healthy volunteers in a heparinized container and diluted with an equal volume of hanks balanced salt solution (HBSS). This mixture is layered on a […] density gradient, such as a Ficoll-Hypaque® gradient (specific gravity 1.08), and centrifuged at 1000×g for 25 minutes at room temperature or cooler. PBMC are obtained from a band at a plasma-Ficoll interface, separated and washed at least twice in a saline solution, such as HBSS. Contaminating red cells are lysed, such as by ACK lysis for 10 min at 37° C., and the PBMCs are washed twice in HBSS. The pellet of purified PBMCs is resuspended in complete medium, such as RPMI 1640 plus 20% human inactivated serum. Proliferative response of PBMC to allogeneic stimulation is determined in a two-way MLR performed in a 96-well microliter plate. Briefly, approximately 10^5 test purified PBMC cells in […] complete medium are co-cultured with approximately 10^5 autologous (control culture) or allogeneic (stimulated culture) PBMC cells, wherein the allogeneic cells are from HLA disparate individuals. Varying doses of compounds (drug) are added at the time of addition of cells to the microtiter plate. The cultures are incubated for 6 days at 37° C. in a 5% CO2 atmosphere. At the conclusion of the incubation tritiated thymidine is added (for example, […] of 40 to 60 Ci/mmole) and proliferation determined by liquid scintillation counting.
This example illustrates a mixed lymphocyte reaction assay of inventive compounds by showing the IC50 value of each compound in this assay and a dose response of several compounds to illustrate an IC50 determination.

The next series concerns murine thymocyte. Put plainly: Murine thymocyte stimulated by ConA and IL-2 (T cell immune suppression). The class given is cell-based. The settings on record: FIGS. 8 and 9. The procedure: A thymocyte costimulator assay is conducted to evaluate the inventive compounds to inhibit activation and proliferation of thymocytes caused by stimulation with Con A and interleukin-1 (IL-1), or […]. Thymuses are obtained from mice (e.g., female Balb/C mice) and the thymuses are removed and dissociated into culture media (e.g., RPMI 1640 without serum supplementation). The dissociated thymus tissue and cell suspension is transferred to centrifuge tubes and allowed to settle, washed with HBSS and resuspended in serum-supplemented culture media (e.g., RPMI 1640 with 10% fetal calf serum). Any contaminating red cells are lysed, and viable cells are resuspended and counted. Thymocytes are plated (e.g., 96-well plates at a density of 2×10^5 cells/well) and a stimulating agent, such as Con A, IL-1 (e.g., IL-1α) or IL-2 is added to the well. The cells are incubated for 4 days at 37° C. On the fourth day, the cells are pulsed with tritiated thymidine and cell proliferation determined. Inventive compounds are added at the time of stimulating agent addition.
A third assay measures an ability of an inventive compound to inhibit IL-2-induced proliferation of murine thymocytes. Thymus glands are obtained from 4-6 week old mice and plated as a single cell suspension into flat bottomed wells in RPMI 1640 medium supplemented with 10% fetal calf serum. The inventive compounds are added to appropriate wells and the cells are incubated for 1-2 hrs. Concanavilin A (ConA, 0.25 mg/ml) and […] (20 ng/ml) are added and the plates are incubated for 4 days. Cell proliferation is determined as above.
FIG. 8 compares T cell immune suppression data of thirteen inventive compounds by comparing their IC50 values in a murine thymocyte stimulated by ConA and IL-2 in vitro model.

Series [5] has as its system PBMC in mixed lymphocyte assay culture. As to the kind of experiment: Percent viable cells in mixed lymphocyte assay culture after six days. The class given is cell-based, human. The settings on record: for cytotoxicity in mixed lymphocyte assay culture: 100 μM, six days of culture.

With Cyclosporin A [reference compound], the “activity in IL-2 blastogenesis assay” value with human lymphocytes [1] is on record as “does not show significant activity”. Moreover, the “immune suppressing activity in blastogenesis assays” value in the series on human lymphocytes [2] is “generally not very active”.

For the compound `CC(C)=CCC[C@H](C)CCCn1c(=O)c2c(ncn2C)n(C)c1=O` [CT2536S, 1-(4-(S)-Methyl-8-methylnon-7-enyl)-3,7-dimethylxanthine], the IC50 in series [3] turned out to be 30 µM. In the series on mast cell degranulation, the RELEASE-SPONT came out at 0.21%, the “AVERAGE % RELEASE” value came out at 16.76% and the inhibition at 50 µM amounted to 97.4%. Further, the “inhibition of yeast growth” value in the series with Saccharomyces cervisiae is given as “strongly inhibited yeast growth”.

Take `CC(C)=CCCC(C)CCn1c(=O)c2c(ncn2C)n(C)c1=O` (racemic) [CT1596]: the “inhibition of yeast growth” value in the series with Saccharomyces cervisiae was “enantiomeric selectivity”.

In turn, `CCCCC/C=C\C/C=C\CCCCCCCCn1c(=O)c2c(ncn2C)n(C)c1=O` [CT1524, 1-(cis,cis-9,12-octadecadienyl)-3,7-dimethylxanthine] returned an IC50 in series [3] of 50 µM. Besides, in the series with mast cell degranulation, the “activity in serotonin release assay” value is given as “may be showing some toxicity at the concentration of 50 μM”, the RELEASE-SPONT is given as 13.90%, the “AVERAGE % RELEASE” value is recorded as 30.46% and the inhibition at 50 µM was -73.3%. The “mixed lymphocyte reaction activity” value in series [4] was “showed activity within dose ranges achievable in vivo”. In addition, the “T cell immune suppressing activity” value with murine thymocyte is reported as “potent immune suppressing activity”. For the same compound, in the series with human lymphocytes [2], the “immune suppressing activity in blastogenesis assays” value was “significant immune suppressing activity”.

For `CC(C)=CCC[C@@H](C)CCCn1c(=O)c2c(ncn2C)n(C)c1=O` [CT2536R, 1-(4-(R)-Methyl-8-methylnon-7-enyl)-3,7-dimethylxanthine], the IC50 in series [3] turned out to be 30 µM. For the same compound, in the series with mast cell degranulation, the RELEASE-SPONT is reported as -0.55%, the “AVERAGE % RELEASE” value came to 16.00% and the inhibition at 50 µM amounted to 107%. Further, the “inhibition of yeast growth” value in the series on Saccharomyces cervisiae is given as “strongly inhibited yeast growth”.

Take `CC/C=C\CCCCCn1c(=O)c2[nH]cnc2n(C)c1=O` [CT1442, 1-(6-cis-nonenyl)-3-methylxanthine]: in the series with mast cell degranulation, the “activity in serotonin release assay” value is given as “increases the activity”, the RELEASE-SPONT was found to be 2.94%, the “AVERAGE % RELEASE” value is given as 19.49% and the inhibition at 50 µM is 63.4%. Further, the “mixed lymphocyte reaction activity” value in series [4] is reported as “the most potent activity”. In addition, in series [5], the “cytotoxicity in mixed lymphocyte assay culture” value is “little or no cytotoxicity at concentrations well above its effective concentrations”. For the same compound, the “T cell immune suppressing activity” value with murine thymocyte was “potent immune suppressing activity”. Further, in the series on human lymphocytes [1], the “activity in IL-2 blastogenesis assay” value is on record as “active”.

`C=CCCCCCCCCCn1c(=O)c2[nH]cnc2n(C)c1=O` [CT1406, 1-(10-undecenyl)-3-methylxanthine] had an IC50 in series [3] of 60 µM. Besides, in the series on mast cell degranulation, the RELEASE-SPONT is on record as 3.26%, the “AVERAGE % RELEASE” value worked out at 19.81% and the inhibition at 50 µM was determined as 59.4%. Also, the “mixed lymphocyte reaction activity” value in series [4] is on record as “the most potent activity”. The IC50 in series [4] (Homo sapiens, PBMC, FIGS. 3 and 4) was found to be 20 µM. For the same compound, the “cytotoxicity in mixed lymphocyte assay culture” value in series [5] was “the most cytotoxic at 100 μM”. Further, in series [5] (cytotoxicity at 100 μM vs MLR IC50), the “therapeutic window” value is “significant therapeutic window”. Besides, the “activity in IL-2 blastogenesis assay” value in the series on human lymphocytes [1] was “active”.

The values are drawn from US5521315A, “Olefin substituted long chain compounds” (priority 1993, dated 1996).
